In patent US8183351B2, “Avermectin derivatives” (Bayer Cropscience AG, priority 2006, dated 2012):

What was measured:
[1] = system: caterpillars of the army worm (Spodoptera frugiperda); test: Spodoptera frugiperda test (SPODFR spray treatment); type: in vivo; details: Example I; 4 ppm active compound; sprayed maize leaf discs
Procedure: Spodoptera frugiperda Test (SPODFR Spray Treatment)
• Solvents: 78.0 parts by weight of acetone • 1.5 parts by weight of dimethylformamide • Emulsifier: 0.5 part by weight of alkylaryl polyglyycol ether
After the desired period of time, the effect in % is determined. 100% means that all caterpillars have been killed; 0% means that none of the caterpillars have been killed.

[2] = system: larvae of the mustard beetle (Phaedon cochleariae); test: Phaedon test (PHAECO spray treatment); type: in vivo; details: Example G; 4 ppm active compound; sprayed Chinese cabbage discs
Procedure: Phaedon Test (PHAECO Spray Treatment)
• Solvents: 78 parts by weight of acetone • 1.5 parts by weight of dimethylformamide • Emulsifier: 0.5 part by weight of alkylaryl polyglyycol ether
After the desired period of time, the effect in % is determined. 100% means that all beetle larvae have been killed; 0% means that none of the beetle larvae have been killed.

SMILES	Kill rate in % after 5 days [1] [%]	Kill rate in % after 7 days [2] [%]
CCCC(=O)OC1C(C)OC(O[C@@H]2/C(C)=C/C[C@@H]3C[C@@H](CC4(C=C[C@H](C)[C@@H]([C@@H](C)CC)O4)O3)OC(=O)C3C=C(C)[C@@H](O)[C@H]4OC/C(=C\C=C\[C@@H]2C)[C@@]34O)CC1OC (some centres unmarked) [Example 28]	100	100
CCCCC(=O)OC1C(C)OC(O[C@@H]2/C(C)=C/C[C@@H]3C[C@@H](CC4(C=C[C@H](C)[C@@H]([C@@H](C)CC)O4)O3)OC(=O)C3C=C(C)[C@@H](O)[C@H]4OC/C(=C\C=C\[C@@H]2C)[C@@]34O)CC1OC (some centres unmarked) [Example 29]	100	100
CC[C@H](C)[C@H]1OC2(C=C[C@@H]1C)C[C@@H]1C[C@@H](C/C=C(\C)[C@@H](OC3CC(OC)C(OC(=O)Cn4cncn4)C(C)O3)[C@@H](C)/C=C/C=C3\CO[C@@H]4[C@H](O)C(C)=CC(C(=O)O1)[C@]34O)O2 (some centres unmarked) [Example 32]	100	100
CC[C@H](C)[C@H]1OC2(C=C[C@@H]1C)C[C@@H]1C[C@@H](C/C=C(\C)[C@@H](OC3CC(OC)C(OC(=O)Cc4cccnc4)C(C)O3)[C@@H](C)/C=C/C=C3\CO[C@@H]4[C@H](O)C(C)=CC(C(=O)O1)[C@]34O)O2 (some centres unmarked) [Example 33]	100	100
CC[C@H](C)[C@H]1OC2(C=C[C@@H]1C)C[C@@H]1C[C@@H](C/C=C(\C)[C@@H](OC3CC(OC)C(OC(=O)Cn4cccn4)C(C)O3)[C@@H](C)/C=C/C=C3\CO[C@@H]4[C@H](O)C(C)=CC(C(=O)O1)[C@]34O)O2 (some centres unmarked) [Example 35]	100	100
CC[C@H](C)[C@H]1OC2(C=C[C@@H]1C)C[C@@H]1C[C@@H](C/C=C(\C)[C@@H](OC3CC(OC)C(OC(=O)C4(F)CC4)C(C)O3)[C@@H](C)/C=C/C=C3\CO[C@@H]4[C@H](O)C(C)=CC(C(=O)O1)[C@]34O)O2 (some centres unmarked) [Example 36]	83	100
CCC(C)C1OC2(C=CC1C)CC1CC(CC=C(C)C(OC3CC(OC)C(OC(=O)C(C)NC(=O)OC(C)(C)C)C(C)O3)C(C)C=CC=C3COC4C(O)C(C)=CC(C(=O)O1)C34O)O2 (centres unmarked) [Example 40]	100	100
CC[C@H](C)[C@H]1OC2(C=C[C@@H]1C)C[C@@H]1C[C@@H](C/C=C(\C)[C@@H](OC3CC(OC)C(OC(=O)Cn4cnnn4)C(C)O3)[C@@H](C)/C=C/C=C3\CO[C@@H]4[C@H](O)C(C)=CC(C(=O)O1)[C@]34O)O2 (some centres unmarked) [Example 42]	100	83
CC[C@H](C)[C@H]1OC2(C=C[C@@H]1C)C[C@@H]1C[C@@H](C/C=C(\C)[C@@H](OC3CC(OC)C(OC(=O)CN4C(=O)CCC4=O)C(C)O3)[C@@H](C)/C=C/C=C3\CO[C@@H]4[C@H](O)C(C)=CC(C(=O)O1)[C@]34O)O2 (some centres unmarked) [Example 45]	100	100
CC[C@H](C)[C@H]1OC2(C=C[C@@H]1C)C[C@@H]1C[C@@H](C/C=C(\C)[C@@H](OC3CC(OC)C(OC(=O)Cn4ccc(C(F)(F)F)n4)C(C)O3)[C@@H](C)/C=C/C=C3\CO[C@@H]4[C@H](O)C(C)=CC(C(=O)O1)[C@]34O)O2 (some centres unmarked) [Example 59]	100	100
CC[C@H](C)[C@H]1OC2(C=C[C@@H]1C)C[C@@H]1C[C@@H](C/C=C(\C)[C@@H](OC3CC(OC)C(OC(=O)C(C)c4ccc(Cl)nc4)C(C)O3)[C@@H](C)/C=C/C=C3\CO[C@@H]4[C@H](O)C(C)=CC(C(=O)O1)[C@]34O)O2 (some centres unmarked) [Example 69]	100	100
CC[C@H](C)[C@H]1OC2(C=C[C@@H]1C)C[C@@H]1C[C@@H](C/C=C(\C)[C@@H](OC3CC(OC)C(OC(=O)Cc4cccn4C)C(C)O3)[C@@H](C)/C=C/C=C3\CO[C@@H]4[C@H](O)C(C)=CC(C(=O)O1)[C@]34O)O2 (some centres unmarked) [Example 71]	100	100
CC[C@H](C)[C@H]1OC2(C=C[C@@H]1C)C[C@@H]1C[C@@H](C/C=C(\C)[C@@H](OC3CC(OC)C(OC(=O)C(C)C#N)C(C)O3)[C@@H](C)/C=C/C=C3\CO[C@@H]4[C@H](O)C(C)=CC(C(=O)O1)[C@]34O)O2 (some centres unmarked) [Example 72]	100	100
CN(C)C1(C)CC1 [Example 74]	100	100
CC[C@H](C)[C@H]1OC2(C=C[C@@H]1C)C[C@@H]1C[C@@H](C/C=C(\C)[C@@H](OC3CC(OC)C(OC(=O)CN4CCOCC4=O)C(C)O3)[C@@H](C)/C=C/C=C3\CO[C@@H]4[C@H](O)C(C)=CC(C(=O)O1)[C@]34O)O2 (some centres unmarked) [Example 75]	100	100
CC[C@H](C)[C@H]1OC2(C=C[C@@H]1C)C[C@@H]1C[C@@H](C/C=C(\C)[C@@H](OC3CC(OC)C(OC(=O)CN4CCN(C)CC4)C(C)O3)[C@@H](C)/C=C/C=C3\CO[C@@H]4[C@H](O)C(C)=CC(C(=O)O1)[C@]34O)O2 (some centres unmarked) [Example 76]	100	100
CC[C@H](C)[C@H]1OC2(C=C[C@@H]1C)C[C@@H]1C[C@@H](C/C=C(\C)[C@@H](OC3CC(OC)C(OC(=O)CN4CCN(Cc5ccccc5)CC4)C(C)O3)[C@@H](C)/C=C/C=C3\CO[C@@H]4[C@H](O)C(C)=CC(C(=O)O1)[C@]34O)O2 (some centres unmarked) [Example 78]	100	100
CC[C@H](C)[C@H]1OC2(C=C[C@@H]1C)C[C@@H]1C[C@@H](C/C=C(\C)[C@@H](OC3CC(OC)C(OC(=O)CN4CCSCC4)C(C)O3)[C@@H](C)/C=C/C=C3\CO[C@@H]4[C@H](O)C(C)=CC(C(=O)O1)[C@]34O)O2 (some centres unmarked) [Example 80]	100	100
CCC(C)C1OC2(C=CC1C)CC1CC(CC=C(C)C(OC3CC(OC)C(OC(=O)C(C)N(C)C)C(C)O3)C(C)C=CC=C3COC4C(O)C(C)=CC(C(=O)O1)C34O)O2 (centres unmarked) [Example 81]	100	100
CC[C@H](C)[C@H]1OC2(C=C[C@@H]1C)C[C@@H]1C[C@@H](C/C=C(\C)[C@@H](OC3CC(OC)C(OC(=O)C(C)CN(C)C)C(C)O3)[C@@H](C)/C=C/C=C3\CO[C@@H]4[C@H](O)C(C)=CC(C(=O)O1)[C@]34O)O2 (some centres unmarked) [Example 82]	100	100
CC[C@H](C)[C@H]1OC2(C=C[C@@H]1C)C[C@@H]1C[C@@H](C/C=C(\C)[C@@H](OC3CC(OC)C(OC(=O)c4ccc(F)cc4)C(C)O3)[C@@H](C)/C=C/C=C3\CO[C@@H]4[C@H](O)C(C)=CC(C(=O)O1)[C@]34O)O2 (some centres unmarked) [Example 99]	100	
